ChEMBL document CHEMBL3991601, “The target landscape of clinical kinase drugs” (Science, 2017)
Calls of active or inactive are those of the source. For most assays here, no stated cut-off is given here; in the data, actives have a measured Kd and inactives only a lower limit.

Assays:
[1] = target: Mitogen-activated protein kinase kinase kinase kinase 1 (Homo sapiens, UniProt Q92918)
[2] = target: Cyclin-dependent kinase 12 (Homo sapiens, UniProt Q9NYV4)
[3] = target: T1, Tyrosine--tRNA ligase, cytoplasmic (Homo sapiens, UniProt P54577)
T1 sequence (P54577 whole entry): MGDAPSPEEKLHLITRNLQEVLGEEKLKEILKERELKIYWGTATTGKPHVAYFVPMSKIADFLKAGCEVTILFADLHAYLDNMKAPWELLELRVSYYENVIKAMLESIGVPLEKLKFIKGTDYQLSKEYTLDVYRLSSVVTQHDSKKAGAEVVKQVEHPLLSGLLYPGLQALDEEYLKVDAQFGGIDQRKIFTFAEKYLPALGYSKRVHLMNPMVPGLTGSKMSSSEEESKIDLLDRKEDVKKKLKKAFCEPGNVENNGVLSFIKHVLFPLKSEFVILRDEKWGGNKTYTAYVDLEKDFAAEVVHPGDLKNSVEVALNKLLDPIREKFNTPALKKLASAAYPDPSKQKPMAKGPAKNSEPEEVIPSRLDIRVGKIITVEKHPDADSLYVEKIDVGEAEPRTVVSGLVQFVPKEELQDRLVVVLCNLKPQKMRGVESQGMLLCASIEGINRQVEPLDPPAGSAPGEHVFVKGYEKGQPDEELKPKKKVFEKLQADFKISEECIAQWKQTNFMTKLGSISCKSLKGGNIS

TGF-beta receptor type-1 = target: T2, TGF-beta receptor type-1 (Homo sapiens, UniProt P36897)
T2 sequence (P36897 whole entry): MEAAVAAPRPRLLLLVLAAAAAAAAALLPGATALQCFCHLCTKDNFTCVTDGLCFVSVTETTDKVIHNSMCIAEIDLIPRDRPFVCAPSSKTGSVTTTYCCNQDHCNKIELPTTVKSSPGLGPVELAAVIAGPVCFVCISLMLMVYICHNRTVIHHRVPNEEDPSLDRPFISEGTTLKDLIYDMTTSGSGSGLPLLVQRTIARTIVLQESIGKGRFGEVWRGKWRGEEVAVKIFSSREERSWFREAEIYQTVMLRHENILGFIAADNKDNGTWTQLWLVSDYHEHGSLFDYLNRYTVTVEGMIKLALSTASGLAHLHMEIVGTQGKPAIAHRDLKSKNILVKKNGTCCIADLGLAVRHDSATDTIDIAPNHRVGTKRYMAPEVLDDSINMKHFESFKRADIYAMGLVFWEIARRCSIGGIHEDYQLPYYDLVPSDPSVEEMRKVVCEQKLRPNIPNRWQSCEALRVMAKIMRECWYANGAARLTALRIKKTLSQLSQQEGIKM

[4] = target: T3, Serine/threonine-protein kinase D2 (Homo sapiens, UniProt Q9BZL6)
T3 sequence (Q9BZL6 whole entry): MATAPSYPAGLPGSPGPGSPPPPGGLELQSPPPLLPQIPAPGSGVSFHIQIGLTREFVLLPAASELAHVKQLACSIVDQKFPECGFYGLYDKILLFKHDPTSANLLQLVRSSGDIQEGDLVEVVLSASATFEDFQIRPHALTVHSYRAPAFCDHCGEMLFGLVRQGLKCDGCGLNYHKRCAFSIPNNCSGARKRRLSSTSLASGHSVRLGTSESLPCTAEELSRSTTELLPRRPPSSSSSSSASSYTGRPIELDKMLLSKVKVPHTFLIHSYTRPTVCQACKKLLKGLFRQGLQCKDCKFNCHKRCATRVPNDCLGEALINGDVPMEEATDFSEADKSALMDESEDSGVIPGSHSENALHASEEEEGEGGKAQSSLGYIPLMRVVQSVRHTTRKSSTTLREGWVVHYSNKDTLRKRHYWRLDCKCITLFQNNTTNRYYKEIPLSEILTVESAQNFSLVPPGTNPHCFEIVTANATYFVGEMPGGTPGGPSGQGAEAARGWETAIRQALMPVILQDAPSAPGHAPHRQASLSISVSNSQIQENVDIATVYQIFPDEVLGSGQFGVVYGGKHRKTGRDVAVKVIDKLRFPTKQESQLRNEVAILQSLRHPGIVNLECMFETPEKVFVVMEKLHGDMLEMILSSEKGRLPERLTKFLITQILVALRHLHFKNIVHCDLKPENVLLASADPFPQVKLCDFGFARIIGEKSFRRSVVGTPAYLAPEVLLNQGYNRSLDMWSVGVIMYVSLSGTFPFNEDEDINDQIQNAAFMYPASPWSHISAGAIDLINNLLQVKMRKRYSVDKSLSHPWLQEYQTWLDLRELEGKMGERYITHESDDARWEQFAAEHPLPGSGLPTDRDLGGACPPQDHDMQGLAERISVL

[5] = target: Dual specificity tyrosine-phosphorylation-regulated kinase 1A (Homo sapiens, UniProt Q13627)
[6] = target: Ribosomal protein S6 kinase alpha-1 (Homo sapiens, UniProt Q15418)
Ribosomal protein S6 kinase alpha-1, sequence (Q15418 whole entry): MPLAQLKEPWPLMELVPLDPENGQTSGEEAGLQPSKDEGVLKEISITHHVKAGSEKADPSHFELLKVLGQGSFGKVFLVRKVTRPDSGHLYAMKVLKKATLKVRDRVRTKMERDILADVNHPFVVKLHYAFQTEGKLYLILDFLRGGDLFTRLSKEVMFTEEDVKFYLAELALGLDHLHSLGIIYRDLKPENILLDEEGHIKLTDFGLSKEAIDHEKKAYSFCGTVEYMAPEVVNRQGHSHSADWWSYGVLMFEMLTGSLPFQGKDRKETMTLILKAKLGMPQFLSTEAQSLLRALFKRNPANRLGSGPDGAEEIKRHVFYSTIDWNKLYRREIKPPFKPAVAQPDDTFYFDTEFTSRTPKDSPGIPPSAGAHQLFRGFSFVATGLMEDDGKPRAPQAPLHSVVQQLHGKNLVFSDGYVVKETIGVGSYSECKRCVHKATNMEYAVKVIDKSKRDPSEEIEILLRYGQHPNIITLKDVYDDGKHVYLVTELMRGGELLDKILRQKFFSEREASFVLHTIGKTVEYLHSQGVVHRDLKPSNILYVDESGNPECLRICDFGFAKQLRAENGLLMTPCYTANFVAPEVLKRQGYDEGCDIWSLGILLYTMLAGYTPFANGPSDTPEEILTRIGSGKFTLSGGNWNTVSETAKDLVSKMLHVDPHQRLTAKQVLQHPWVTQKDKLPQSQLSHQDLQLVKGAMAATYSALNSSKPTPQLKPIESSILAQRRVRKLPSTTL

[7] = target: T4, MAP kinase-activated protein kinase 5 (Homo sapiens, UniProt Q8IW41)
T4 sequence (Q8IW41 whole entry): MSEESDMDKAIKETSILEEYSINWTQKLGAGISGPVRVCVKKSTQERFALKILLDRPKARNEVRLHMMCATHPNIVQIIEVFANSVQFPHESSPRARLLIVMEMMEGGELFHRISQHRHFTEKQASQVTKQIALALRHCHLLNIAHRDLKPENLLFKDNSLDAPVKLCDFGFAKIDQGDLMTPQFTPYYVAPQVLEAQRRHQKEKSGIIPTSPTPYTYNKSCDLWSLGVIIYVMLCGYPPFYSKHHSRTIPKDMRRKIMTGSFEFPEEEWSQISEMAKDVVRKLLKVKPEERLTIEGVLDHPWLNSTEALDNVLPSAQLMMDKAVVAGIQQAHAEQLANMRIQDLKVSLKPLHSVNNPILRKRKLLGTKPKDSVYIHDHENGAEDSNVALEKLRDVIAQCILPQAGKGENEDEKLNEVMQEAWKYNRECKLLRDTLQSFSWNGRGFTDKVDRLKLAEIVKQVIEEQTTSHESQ

Ephrin type-A receptor 5 = Ephrin type-A receptor 5 (Homo sapiens, UniProt P54756)
Ephrin type-A receptor 5, sequence (P54756 whole entry): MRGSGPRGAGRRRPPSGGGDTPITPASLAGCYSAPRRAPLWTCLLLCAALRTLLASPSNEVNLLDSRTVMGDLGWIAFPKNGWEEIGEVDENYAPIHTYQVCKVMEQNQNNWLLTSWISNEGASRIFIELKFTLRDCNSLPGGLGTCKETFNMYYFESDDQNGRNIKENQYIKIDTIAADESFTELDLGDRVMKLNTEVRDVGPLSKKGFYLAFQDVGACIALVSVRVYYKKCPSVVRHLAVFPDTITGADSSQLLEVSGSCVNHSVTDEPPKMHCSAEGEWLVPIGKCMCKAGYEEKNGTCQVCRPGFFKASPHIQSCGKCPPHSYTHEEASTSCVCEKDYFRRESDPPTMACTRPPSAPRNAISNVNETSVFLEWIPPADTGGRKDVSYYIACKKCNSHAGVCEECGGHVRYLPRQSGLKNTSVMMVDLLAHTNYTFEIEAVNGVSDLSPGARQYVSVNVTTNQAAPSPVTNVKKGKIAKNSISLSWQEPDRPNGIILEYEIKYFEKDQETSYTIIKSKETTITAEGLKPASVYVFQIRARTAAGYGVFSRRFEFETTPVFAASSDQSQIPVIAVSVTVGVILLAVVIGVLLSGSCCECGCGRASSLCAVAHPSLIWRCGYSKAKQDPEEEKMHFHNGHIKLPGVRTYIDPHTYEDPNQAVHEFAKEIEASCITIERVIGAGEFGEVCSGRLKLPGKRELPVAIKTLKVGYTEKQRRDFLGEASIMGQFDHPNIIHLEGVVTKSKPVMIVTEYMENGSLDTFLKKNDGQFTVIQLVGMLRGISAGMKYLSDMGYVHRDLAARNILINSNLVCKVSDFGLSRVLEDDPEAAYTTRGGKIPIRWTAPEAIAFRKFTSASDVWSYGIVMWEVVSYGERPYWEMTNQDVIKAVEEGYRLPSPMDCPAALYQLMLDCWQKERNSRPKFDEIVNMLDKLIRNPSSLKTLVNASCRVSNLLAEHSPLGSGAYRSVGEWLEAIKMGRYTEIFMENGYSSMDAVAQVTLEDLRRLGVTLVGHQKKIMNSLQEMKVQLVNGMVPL

[8] = target: Serine/threonine-protein kinase/endoribonuclease IRE2 (Homo sapiens, UniProt Q76MJ5)
Serine/threonine-protein kinase/endoribonuclease IRE2, sequence (Q76MJ5 whole entry): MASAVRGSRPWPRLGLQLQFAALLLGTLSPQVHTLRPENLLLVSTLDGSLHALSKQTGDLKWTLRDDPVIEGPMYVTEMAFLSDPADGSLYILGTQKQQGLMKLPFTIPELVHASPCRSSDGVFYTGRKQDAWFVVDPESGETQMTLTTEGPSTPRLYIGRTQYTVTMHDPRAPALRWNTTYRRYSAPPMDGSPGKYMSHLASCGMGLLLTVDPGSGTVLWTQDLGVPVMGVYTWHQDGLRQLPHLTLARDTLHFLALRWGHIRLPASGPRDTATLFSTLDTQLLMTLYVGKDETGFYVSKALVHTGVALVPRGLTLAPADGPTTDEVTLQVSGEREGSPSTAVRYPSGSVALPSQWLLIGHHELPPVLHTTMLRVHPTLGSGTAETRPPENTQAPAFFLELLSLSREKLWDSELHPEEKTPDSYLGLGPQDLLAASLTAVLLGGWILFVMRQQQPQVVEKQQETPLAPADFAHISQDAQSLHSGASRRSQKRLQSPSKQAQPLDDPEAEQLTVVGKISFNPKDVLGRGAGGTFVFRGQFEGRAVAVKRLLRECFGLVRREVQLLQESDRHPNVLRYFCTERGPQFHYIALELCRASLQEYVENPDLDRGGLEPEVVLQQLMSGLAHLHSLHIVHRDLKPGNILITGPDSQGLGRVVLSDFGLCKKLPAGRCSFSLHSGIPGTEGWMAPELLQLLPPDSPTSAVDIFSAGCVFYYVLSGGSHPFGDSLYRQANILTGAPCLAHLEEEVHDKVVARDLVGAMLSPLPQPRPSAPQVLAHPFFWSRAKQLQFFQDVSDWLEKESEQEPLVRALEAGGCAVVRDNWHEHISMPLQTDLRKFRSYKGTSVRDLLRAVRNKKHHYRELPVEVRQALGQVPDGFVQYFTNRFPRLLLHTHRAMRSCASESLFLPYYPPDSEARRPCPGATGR

Mitogen-activated protein kinase kinase kinase kinase 1, sequence (Q92918 whole entry): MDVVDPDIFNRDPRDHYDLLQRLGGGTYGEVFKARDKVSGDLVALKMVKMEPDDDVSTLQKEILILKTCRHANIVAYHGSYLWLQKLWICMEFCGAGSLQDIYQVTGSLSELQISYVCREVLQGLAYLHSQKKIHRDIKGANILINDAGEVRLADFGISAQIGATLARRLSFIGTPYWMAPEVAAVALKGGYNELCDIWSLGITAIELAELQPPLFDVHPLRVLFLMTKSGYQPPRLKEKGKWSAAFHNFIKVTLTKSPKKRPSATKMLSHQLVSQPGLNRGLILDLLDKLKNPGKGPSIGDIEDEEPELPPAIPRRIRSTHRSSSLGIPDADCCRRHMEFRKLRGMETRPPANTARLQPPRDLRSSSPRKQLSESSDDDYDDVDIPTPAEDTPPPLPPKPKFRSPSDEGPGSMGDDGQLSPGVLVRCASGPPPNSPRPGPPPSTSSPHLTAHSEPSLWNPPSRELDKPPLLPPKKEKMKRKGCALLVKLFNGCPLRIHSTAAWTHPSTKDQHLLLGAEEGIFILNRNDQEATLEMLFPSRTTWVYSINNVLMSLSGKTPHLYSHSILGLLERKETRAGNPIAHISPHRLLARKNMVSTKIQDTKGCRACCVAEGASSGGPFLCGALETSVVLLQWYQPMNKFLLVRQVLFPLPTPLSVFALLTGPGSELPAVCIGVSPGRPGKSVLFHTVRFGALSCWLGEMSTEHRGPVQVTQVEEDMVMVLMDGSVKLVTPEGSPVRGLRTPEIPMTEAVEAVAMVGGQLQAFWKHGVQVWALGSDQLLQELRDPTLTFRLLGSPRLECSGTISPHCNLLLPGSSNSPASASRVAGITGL
Cyclin-dependent kinase 12, sequence (Q9NYV4 whole entry): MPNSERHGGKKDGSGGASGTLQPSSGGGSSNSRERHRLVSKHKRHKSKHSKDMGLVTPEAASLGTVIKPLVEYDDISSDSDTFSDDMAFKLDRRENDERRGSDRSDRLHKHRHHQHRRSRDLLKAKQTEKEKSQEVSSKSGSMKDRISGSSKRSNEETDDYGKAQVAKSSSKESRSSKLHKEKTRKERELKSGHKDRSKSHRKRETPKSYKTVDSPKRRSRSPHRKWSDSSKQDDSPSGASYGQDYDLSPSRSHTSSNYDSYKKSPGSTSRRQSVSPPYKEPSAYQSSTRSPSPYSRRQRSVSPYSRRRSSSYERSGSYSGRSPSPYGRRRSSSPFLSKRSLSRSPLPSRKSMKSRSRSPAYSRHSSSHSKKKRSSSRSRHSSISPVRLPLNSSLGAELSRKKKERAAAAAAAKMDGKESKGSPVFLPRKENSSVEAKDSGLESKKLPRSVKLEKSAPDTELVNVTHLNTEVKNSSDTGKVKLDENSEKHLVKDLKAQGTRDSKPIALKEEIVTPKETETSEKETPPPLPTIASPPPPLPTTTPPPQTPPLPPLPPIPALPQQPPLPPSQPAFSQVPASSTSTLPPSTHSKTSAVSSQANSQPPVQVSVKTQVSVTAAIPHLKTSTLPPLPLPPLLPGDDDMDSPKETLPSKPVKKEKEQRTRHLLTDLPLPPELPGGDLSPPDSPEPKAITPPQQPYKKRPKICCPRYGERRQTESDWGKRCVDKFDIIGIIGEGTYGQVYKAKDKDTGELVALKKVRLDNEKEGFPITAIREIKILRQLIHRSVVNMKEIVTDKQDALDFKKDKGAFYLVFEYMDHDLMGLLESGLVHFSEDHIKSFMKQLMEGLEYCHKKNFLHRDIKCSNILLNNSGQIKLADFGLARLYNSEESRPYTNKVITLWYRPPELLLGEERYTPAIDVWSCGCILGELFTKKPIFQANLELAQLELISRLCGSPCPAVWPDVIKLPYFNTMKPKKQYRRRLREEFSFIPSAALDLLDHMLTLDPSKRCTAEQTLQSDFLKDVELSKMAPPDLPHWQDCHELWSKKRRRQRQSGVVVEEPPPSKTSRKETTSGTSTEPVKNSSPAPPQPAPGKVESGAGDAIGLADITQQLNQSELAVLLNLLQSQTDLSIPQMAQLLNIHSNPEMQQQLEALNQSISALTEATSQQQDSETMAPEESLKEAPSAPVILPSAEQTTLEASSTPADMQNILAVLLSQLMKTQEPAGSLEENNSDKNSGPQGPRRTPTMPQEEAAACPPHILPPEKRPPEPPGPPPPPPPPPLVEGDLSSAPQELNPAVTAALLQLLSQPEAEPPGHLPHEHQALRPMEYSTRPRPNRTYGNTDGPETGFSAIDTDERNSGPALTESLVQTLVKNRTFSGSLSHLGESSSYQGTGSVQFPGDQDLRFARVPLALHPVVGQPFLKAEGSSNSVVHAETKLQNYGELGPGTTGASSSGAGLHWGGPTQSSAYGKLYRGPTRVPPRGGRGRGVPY

| Structure (SMILES) | Kd [1] | Kd [2] | Kd [3] | Kd (TGF-beta receptor type-1) | Kd [4] | Kd [5] | Kd [6] | Kd [7] | Kd (Ephrin type-A receptor 5) | Kd [8] |
| --- | --- | --- | --- | --- | --- | --- | --- | --- | --- | --- |
| CN1CC[C@@H](c2c(O)cc(O)c3c(=O)cc(-c4ccccc4Cl)oc23)[C@@H]1CO | > 30 µM (inactive) | 3.16 µM (active) | > 30 µM (inactive) | > 30 µM (inactive) | > 30 µM (inactive) | > 30 µM (inactive) | > 30 µM (inactive) | > 30 µM (inactive) | > 30 µM (inactive) | > 30 µM (inactive) |
| CN1CCC(CNc2ccc3ncc(-c4cccc(OC(F)(F)F)c4)n3n2)CC1 [SGI-1776] | > 30 µM (inactive) | > 30 µM (inactive) | > 30 µM (inactive) | > 30 µM (inactive) | > 30 µM (inactive) | > 30 µM (inactive) | > 30 µM (inactive) | > 30 µM (inactive) | > 30 µM (inactive) | > 30 µM (inactive) |
| COc1cc(OC)c(/C=C/S(=O)(=O)Cc2ccc(OC)c(NCC(=O)O)c2)c(OC)c1 [RIGOSERTIB] | > 30 µM (inactive) | > 30 µM (inactive) | > 30 µM (inactive) | > 30 µM (inactive) | > 30 µM (inactive) | > 30 µM (inactive) | > 30 µM (inactive) | > 30 µM (inactive) | > 30 µM (inactive) | > 30 µM (inactive) |
| CNC(=O)CN1CCC(Oc2cc3c(Nc4cccc(Cl)c4F)ncnc3cc2OC)CC1 [SAPITINIB] | > 30 µM (inactive) | > 30 µM (inactive) | > 30 µM (inactive) | > 30 µM (inactive) | > 30 µM (inactive) | > 30 µM (inactive) | > 30 µM (inactive) | > 30 µM (inactive) | 0.835 µM (active) | > 30 µM (inactive) |
| Cc1cc(-c2cc(O)ccc2Cl)cc2nnc(Nc3ccc(OCCN4CCCC4)cc3)nc12 | > 30 µM (inactive) | > 30 µM (inactive) | > 30 µM (inactive) | 0.002 µM (active) | 0.003 µM (active) | > 30 µM (inactive) | > 30 µM (inactive) | > 30 µM (inactive) | 0.0004 µM (active) | > 30 µM (inactive) |
| O=C(c1ccc(F)c(F)c1Nc1ccc(I)cc1F)N1CC(O)([C@@H]2CCCCN2)C1 [COBIMETINIB] | > 30 µM (inactive) | > 30 µM (inactive) | > 30 µM (inactive) | > 30 µM (inactive) | > 30 µM (inactive) | > 30 µM (inactive) | > 30 µM (inactive) | > 30 µM (inactive) | > 30 µM (inactive) | > 30 µM (inactive) |
| CN1CCC(COc2cnc(-c3cccc(Cn4nc(-c5cccc(C#N)c5)ccc4=O)c3)nc2)CC1 [TEPOTINIB] | > 30 µM (inactive) | > 30 µM (inactive) | > 30 µM (inactive) | > 30 µM (inactive) | > 30 µM (inactive) | > 30 µM (inactive) | > 30 µM (inactive) | > 30 µM (inactive) | > 30 µM (inactive) | > 30 µM (inactive) |

Further lines, results first:

| Kd [1] | Kd [2] | Kd [3] | Kd (TGF-beta receptor type-1) | Kd [4] | Kd [5] | Kd [6] | Kd [7] | Kd (Ephrin type-A receptor 5) | Kd [8] | Structure (SMILES) |
| --- | --- | --- | --- | --- | --- | --- | --- | --- | --- | --- |
| > 30 µM (inactive) | > 30 µM (inactive) | > 30 µM (inactive) | > 30 µM (inactive) | > 30 µM (inactive) | 0.314 µM (active) | > 30 µM (inactive) | > 30 µM (inactive) | > 30 µM (inactive) | > 30 µM (inactive) | O=C1NC(=O)/C(=C/c2ccc3nccc(-c4ccncc4)c3c2)S1 [GSK-1059615] |
| > 30 µM (inactive) | > 30 µM (inactive) | > 30 µM (inactive) | > 30 µM (inactive) | > 30 µM (inactive) | > 30 µM (inactive) | > 30 µM (inactive) | > 30 µM (inactive) | > 30 µM (inactive) | > 30 µM (inactive) | O=c1sn(-c2cccc3ccccc23)c(=O)n1Cc1ccccc1 [TIDEGLUSIB] |
| > 30 µM (inactive) | > 30 µM (inactive) | > 30 µM (inactive) | > 30 µM (inactive) | > 30 µM (inactive) | > 30 µM (inactive) | > 30 µM (inactive) | > 30 µM (inactive) | > 30 µM (inactive) | > 30 µM (inactive) | CC[C@H](Nc1ncnc2[nH]cnc12)c1nc2cccc(F)c2c(=O)n1-c1ccccc1 [IDELALISIB] |
| > 30 µM (inactive) | > 30 µM (inactive) | > 30 µM (inactive) | > 30 µM (inactive) | > 30 µM (inactive) | > 30 µM (inactive) | > 30 µM (inactive) | > 30 µM (inactive) | > 30 µM (inactive) | > 30 µM (inactive) | COC(=O)N[C@@H](C)CNc1nccc(-c2cn(C(C)C)nc2-c2cc(Cl)cc(NS(C)(=O)=O)c2F)n1 [ENCORAFENIB] |
| 0.16 µM | > 30 µM (inactive) | > 30 µM (inactive) | > 30 µM (inactive) | > 30 µM (inactive) | > 30 µM (inactive) | > 30 µM (inactive) | > 30 µM (inactive) | > 30 µM (inactive) | > 30 µM (inactive) | C1=C/COCc2cc(ccc2OCCN2CCCC2)Nc2nccc(n2)-c2cccc(c2)COC/1 [PACRITINIB] |
| > 30 µM (inactive) | > 30 µM (inactive) | > 30 µM (inactive) | > 30 µM (inactive) | > 30 µM (inactive) | > 30 µM (inactive) | > 30 µM (inactive) | > 30 µM (inactive) | > 30 µM (inactive) | > 30 µM (inactive) | Cn1cc(-c2ccc3nnc(C(F)(F)c4ccc5ncccc5c4)n3n2)cn1 [JNJ-38877605] |
| > 30 µM (inactive) | > 30 µM (inactive) | > 30 µM (inactive) | > 30 µM (inactive) | 3.91 µM (active) | > 30 µM (inactive) | > 30 µM (inactive) | > 30 µM (inactive) | > 30 µM (inactive) | > 30 µM (inactive) | Cn1ncc(Cl)c1-c1cc(C(=O)N[C@H](CN)Cc2cccc(F)c2)sc1Cl [AFURESERTIB] |
